Read-outs that look alike come from different tables or passages of the source. Where only a bound is given, the exact number is not on record here.

This is an account of results in US12539292B2, “BRM targeting compounds and associated methods of use” (Arvinas Operations, Inc., priority 2018, dated 2026).

The target in the assay is T1, BRM (Homo sapiens, UniProt P51531).
T1 construct: In-Cell Western Screen of BRM Degradation in SW1573 Cells; endogenous in cells; host or cells: SW1573
As to the kind of experiment: In-cell Western screen of BRM degradation in SW1573 cells (Dmax and DC50). The class given is cell-based. A digest of the protocol: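 SW1573 cells were treated with compound overnight (18-20 h; final DMSO 0.1%), then fixed in 4% PFA, permeabilized with Triton X-100 and blocked. BRM was detected by in-cell Western using 800 nm anti-rabbit and 680 nm anti-mouse secondaries, and Dmax and DC50 were derived from the LI-COR Odyssey signal.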

[1] abbreviates: BRM degradation, SW1573 cells, read-out: DC50.
The mark [2] stands for this setting: BRM degradation, SW1573 cells, tested at the top concentration of between 0.3 and 10 μM, read-out: Dmax (%) (% degraded).
Setting [3] is: BRM degradation, SW1573 cells, Table 2D, read-out: **Dmax (%) (% degraded).
Setting [4] is: BRM degradation, SW1573 cells, Table 2D, read-out: *DC50.
Setting [5] is: SW1573, % degraded, when tested at the top concentration of between 0.3 and 10 μM, read-out: BRM Dmax (%).

T1 sequence (P51531 whole entry): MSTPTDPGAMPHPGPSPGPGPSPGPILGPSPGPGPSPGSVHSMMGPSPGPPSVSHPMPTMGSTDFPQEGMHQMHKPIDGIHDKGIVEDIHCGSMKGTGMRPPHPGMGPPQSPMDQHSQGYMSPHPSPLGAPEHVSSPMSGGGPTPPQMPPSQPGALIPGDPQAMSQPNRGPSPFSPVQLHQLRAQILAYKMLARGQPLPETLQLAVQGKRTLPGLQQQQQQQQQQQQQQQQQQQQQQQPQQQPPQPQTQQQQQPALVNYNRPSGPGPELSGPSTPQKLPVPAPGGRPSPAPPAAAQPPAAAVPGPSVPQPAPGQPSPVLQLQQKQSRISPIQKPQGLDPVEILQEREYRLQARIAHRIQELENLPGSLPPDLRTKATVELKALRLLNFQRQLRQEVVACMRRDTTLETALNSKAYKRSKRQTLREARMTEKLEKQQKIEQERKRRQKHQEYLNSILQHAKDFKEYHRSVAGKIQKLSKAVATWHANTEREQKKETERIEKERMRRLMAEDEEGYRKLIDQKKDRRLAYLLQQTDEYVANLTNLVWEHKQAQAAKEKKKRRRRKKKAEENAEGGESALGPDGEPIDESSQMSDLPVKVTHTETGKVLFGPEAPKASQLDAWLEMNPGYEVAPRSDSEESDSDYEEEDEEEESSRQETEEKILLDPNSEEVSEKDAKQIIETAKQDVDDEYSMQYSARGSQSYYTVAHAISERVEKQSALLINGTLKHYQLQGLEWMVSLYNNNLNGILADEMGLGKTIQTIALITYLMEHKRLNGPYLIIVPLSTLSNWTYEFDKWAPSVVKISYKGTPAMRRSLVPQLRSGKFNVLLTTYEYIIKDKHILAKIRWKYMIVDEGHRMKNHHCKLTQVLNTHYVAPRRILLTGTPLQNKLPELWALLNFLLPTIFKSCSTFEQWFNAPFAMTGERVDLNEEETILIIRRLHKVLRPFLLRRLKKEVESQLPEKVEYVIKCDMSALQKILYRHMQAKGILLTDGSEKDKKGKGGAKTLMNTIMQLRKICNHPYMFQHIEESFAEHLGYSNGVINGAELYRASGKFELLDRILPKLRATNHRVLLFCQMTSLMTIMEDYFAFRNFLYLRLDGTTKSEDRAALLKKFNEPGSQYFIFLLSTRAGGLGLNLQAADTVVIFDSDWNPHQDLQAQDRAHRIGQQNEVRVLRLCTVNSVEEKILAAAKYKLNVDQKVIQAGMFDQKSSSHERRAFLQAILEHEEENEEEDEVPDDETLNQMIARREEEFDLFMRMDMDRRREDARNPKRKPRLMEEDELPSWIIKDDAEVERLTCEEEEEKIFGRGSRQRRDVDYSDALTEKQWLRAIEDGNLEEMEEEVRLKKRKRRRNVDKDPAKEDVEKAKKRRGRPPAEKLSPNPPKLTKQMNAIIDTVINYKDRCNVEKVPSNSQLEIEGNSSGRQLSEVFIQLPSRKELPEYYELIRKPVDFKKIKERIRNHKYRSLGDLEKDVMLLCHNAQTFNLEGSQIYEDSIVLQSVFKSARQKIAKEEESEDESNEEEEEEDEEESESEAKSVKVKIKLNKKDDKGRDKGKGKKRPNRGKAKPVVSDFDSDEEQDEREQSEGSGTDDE

Turning to `Cc1ncsc1-c1ccc([C@H](C)NC(=O)[C@@H]2C[C@@H](O)CN2C(=O)[C@H](c2cc(N3CCC(O)(CN4CCC(O[C@H]5C[C@H](Oc6cc(N7C8CCC7CN(c7cc(-c9ccccc9O)nnc7N)C8)ccn6)C5)CC4)CC3)no2)C(C)C)cc1` [compound 641, (2S,4R)-1-((2S)-2-(3-(4-((4-((1r,3r)-3-((4-(3-(3-amino-6-(2-hydroxyphenyl)pyridazin-4-yl)-3,8-diazabicyclo[3.2.1]octan-8-yl)pyridin-2-yl)oxy)cyclobutoxy)piperidin-1-yl)methyl)-4-hydroxypiperidin-1-yl)isoxazol-5-yl)-3-methylbutanoyl)-4-hydroxy-N-((S)-1-(4-(4-methylthiazol-5-yl)phenyl)ethyl)pyrrolidine-2-carboxamide], under setting [1], the DC50 (as a rule, the concentration giving 50% degradation) is more than 30 nM.

For the molecule `Cc1ncsc1-c1ccc([C@H](C)NC(=O)[C@@H]2C[C@@H](O)CN2C(=O)[C@H](c2cc(OCCN3CCN(CCOc4cc(N5C6CCC5CN(c5cc(-c7ccccc7O)nnc5N)C6)ccn4)CC3)no2)C(C)C)cn1` [compound 160, (2S,4R)-1-((2S)-2-(3-(2-(4-(2-((4-(3-(3-amino-6-(2-hydroxyphenyl)pyridazin-4-yl)-3,8-diazabicyclo[3.2.1]octan-8-yl)pyridin-2-yl)oxy)ethyl)piperazin-1-yl)ethoxy)isoxazol-5-yl)-3-methylbutanoyl)-4-hydroxy-N-((S)-1-(6-(4-methylthiazol-5-yl)pyridin-3-yl)ethyl)pyrrolidine-2-carboxamide], the DC50 under setting [1] is more than 30 nM. In addition, the Dmax – broadly, the largest share of the target that was removed – under setting [2] is more than 75%.

On to `Cc1ncsc1-c1cc(F)c([C@H](C)NC(=O)[C@@H]2C[C@@H](O)CN2C(=O)[C@@H](c2cc(OCCN3CCC(O[C@H]4C[C@H](Oc5cc(N6C7CCC6CN(c6cc(-c8ccccc8O)nnc6N)C7)ccn5)C4)CC3)no2)C(C)C)cn1` [compound 539, (2S,4R)-1-((2R)-2-(3-(2-(4-((1r,3R)-3-((4-(3-(3-amino-6-(2-hydroxyphenyl)pyridazin-4-yl)-3,8-diazabicyclo[3.2.1]octan-8-yl)pyridin-2-yl)oxy)cyclobutoxy)piperidin-1-yl)ethoxy)isoxazol-5-yl)-3-methylbutanoyl)-N-((S)-1-(4-fluoro-6-(4-methylthiazol-5-yl)pyridin-3-yl)ethyl)-4-hydroxypyrrolidine-2-carboxamide], for which the Dmax under setting [3] is more than 75%. Further, under setting [4], the DC50 was less than 2.5 nM.

Turning to `Cc1cnn(C)c1-c1ccc([C@H](C)NC(=O)[C@@H]2C[C@@H](O)CN2C(=O)[C@H](c2cc(OCCN3CCC(O[C@H]4C[C@H](Oc5cc(N6C7CCC6CN(c6cc(-c8ccccc8O)nnc6N)C7)ccn5)C4)CC3)no2)C(C)C)cc1` [compound 294, (2S,4R)-1-((2S)-2-(3-(2-(4-((1r,3S)-3-((4-(3-(3-amino-6-(2-hydroxyphenyl)pyridazin-4-yl)-3,8-diazabicyclo[3.2.1]octan-8-yl)pyridin-2-yl)oxy)cyclobutoxy)piperidin-1-yl)ethoxy)isoxazol-5-yl)-3-methylbutanoyl)-N-((S)-1-(4-(1,4-dimethyl-1H-pyrazol-5-yl)phenyl)ethyl)-4-hydroxypyrrolidine-2-carboxamide], under setting [1], the DC50 is 2.5 to 10 nM. For the same molecule, under setting [2], the Dmax is more than 75%.

As for `Cc1ncsc1-c1ccc([C@H](C)NC(=O)[C@@H]2C[C@@H](O)CN2C(=O)[C@H](c2cc(OCCN3CCC4(CC3)CC(OCCN3CCOC5(CCN(c6cc(-c7ccccc7O)nnc6N)CC5)C3)C4)no2)C(C)C)cc1` [compound 164, (2S,4R)-1-((S)-2-(3-(2-(2-(2-(9-(3-amino-6-(2-hydroxyphenyl)pyridazin-4-yl)-1-oxa-4,9-diazaspiro[5.5]undecan-4-yl)ethoxy)-7-azaspiro[3.5]nonan-7-yl)ethoxy)isoxazol-5-yl)-3-methylbutanoyl)-4-hydroxy-N-((S)-1-(4-(4-methylthiazol-5-yl)phenyl)ethyl)pyrrolidine-2-carboxamide], under setting [1], the DC50 was in the range of 10 to 30 nM. Under setting [2], the Dmax lay within 50 to 75%.

Consider `Cc1ncsc1-c1ccc(CNC(=O)[C@@H]2C[C@@H](O)CN2C(=O)[C@@H](c2cc(OCCOCCOCCCCN3CCOC4(CCN(c5cc(-c6ccccc6O)nnc5N)CC4)C3)no2)C(C)C)cc1` [compound 37, (2S,4R)-1-((R)-2-(3-(2-(2-(4-(9-(3-amino-6-(2-hydroxyphenyl)pyridazin-4-yl)-1-oxa-4,9-diazaspiro[5.5]undecan-4-yl)butoxy)ethoxy)ethoxy)isoxazol-5-yl)-3-methylbutanoyl)-4-hydroxy-N-(4-(4-methylthiazol-5-yl)benzyl)pyrrolidine-2-carboxamide], for which the DC50 under setting [1] was 2.5 to 10 nM. Besides, the Dmax (BRM degradation, SW1573 cells, when tested at the top concentration of between 0.3 and 10 μM, read-out: Dmax (%) (% degraded)) is more than 75%.

With `Cc1ncsc1-c1ccc([C@H](COCC(C)C)NC(=O)[C@@H]2C[C@@H](O)CN2C(=O)[C@@H](c2cc(OCCN3CCN(CCOc4cc(N5C6CCC5CN(c5cc(-c7ccccc7O)nnc5N)C6)ccn4)CC3)no2)C(C)C)cc1` [compound 129, (2S,4R)-1-((2R)-2-(3-(2-(4-(2-((4-(3-(3-amino-6-(2-hydroxyphenyl)pyridazin-4-yl)-3,8-diazabicyclo[3.2.1]octan-8-yl)pyridin-2-yl)oxy)ethyl)piperazin-1-yl)ethoxy)isoxazol-5-yl)-3-methylbutanoyl)-4-hydroxy-N-((R)-2-isobutoxy-1-(4-(4-methylthiazol-5-yl)phenyl)ethyl)pyrrolidine-2-carboxamide], the half-maximal degradation concentration (DC50) under setting [1] was more than 30 nM.

As to `Cc1ncsc1-c1ccc([C@H](C)NC(=O)[C@@H]2C[C@@H](O)CN2C(=O)[C@@H](c2cc(OCCCOc3cc(N4C5CCC4CN(c4cc(-c6ccccc6O)nnc4N)C5)ccn3)no2)C(C)C)cc1` [compound 614, (2S,4R)-1-((2R)-2-(3-(3-((4-(3-(3-amino-6-(2-hydroxyphenyl)pyridazin-4-yl)-3,8-diazabicyclo[3.2.1]octan-8-yl)pyridin-2-yl)oxy)propoxy)isoxazol-5-y1)-3-methylbutanoyl)-4-hydroxy-N-((S)-1-(4-(4-methylthiazol-5-yl)phenyl)ethyl)pyrrolidine-2-carboxamide], the Dmax under setting [3] was more than 75%. Also, the half-maximal degradation concentration (DC50) under setting [4] is less than 2.5 nM.

`Cc1ncsc1-c1cnc([C@@H](C)NC(=O)[C@@H]2C[C@@H](O)CN2C(=O)[C@H](c2cc(OCCN3CCC(O[C@H]4C[C@H](Oc5cc(N6C7CCC6CN(c6cc(-c8ccccc8O)nnc6N)C7)ccn5)C4)CC3)no2)C(C)C)cn1` [compound 440, (2S,4R)-1-((2S)-2-(3-(2-(4-((1r,3S)-3-((4-(3-(3-amino-6-(2-hydroxyphenyl)pyridazin-4-yl)-3,8-diazabicyclo[3.2.1]octan-8-yl)pyridin-2-yl)oxy)cyclobutoxy)piperidin-1-yl)ethoxy)isoxazol-5-yl)-3-methylbutanoyl)-4-hydroxy-N-((R)-1-(5-(4-methylthiazol-5-yl)pyrazin-2-yl)ethyl)pyrrolidine-2-carboxamide]: where the note is “degradation of BRM, read-out: BRM DC50”, the DC50 is more than 30 nM.

As to `COCC[C@H](NC(=O)[C@@H]1C[C@@H](O)CN1C(=O)[C@@H](c1cc(N2CCC(CN3CCC(O[C@H]4C[C@H](Oc5cc(N6C7CCC6CN(c6cc(-c8ccccc8O)nnc6N)C7)ccn5)C4)CC3)CC2)no1)C(C)C)c1ccc(-c2scnc2C)cc1` [compound 670, (2S,4R)-1-((2R)-2-(3-(4-((4-((1r,3r)-3-((4-(3-(3-amino-6-(2-hydroxyphenyl)pyridazin-4-yl)-3,8-diazabicyclo[3.2.1]octan-8-yl)pyridin-2-yl)oxy)cyclobutoxy)piperidin-1-yl)methyl)piperidin-1-yl)isoxazol-5-yl)-3-methylbutanoyl)-4-hydroxy-N-((S)-3-methoxy-1-(4-(4-methylthiazol-5-yl)phenyl)propyl)pyrrolidine-2-carboxamide], under setting [1], the 50% degradation concentration (DC50) is less than 2.5 nM. In addition, the Dmax (BRM degradation, SW1573 cells, read-out: Dmax (% degraded)) was more than 75%.

As to `Cc1ncsc1-c1ccc([C@H](C)NC(=O)[C@@H]2C[C@@H](O)CN2C(=O)[C@@H](c2cc(OCCN3CCC(O[C@H]4C[C@H](Oc5cc(N6C7CCC6CN(c6cc(-c8ccccc8OP(=O)(O)O)nnc6N)C7)ccn5)C4)CC3)no2)C(C)C)cc1` [compound 506, 2-(6-amino-5-(8-(2-((1R,3r)-3-((1-(2-((5-((R)-1-((2S,4R)-4-hydroxy-2-(((S)-1-(4-(4-methylthiazol-5-yl)phenyl)ethyl)carbamoyl)pyrrolidin-1-yl)-3-methyl-1-oxobutan-2-yl)isoxazol-3-yl)oxy)ethyl)piperidin-4-yl)oxy)cyclobutoxy)pyridin-4-yl)-3,8-diazabicyclo[3.2.1]octan-3-yl)pyridazin-3-yl)phenyl dihydrogen phosphate], the DC50 (BRM degradation, read-out: BRM DC50) is less than 2.5 nM. For the same molecule, under setting [5], the Dmax is more than 75%.

Consider `Cc1ncsc1-c1ccc([C@H](C)NC(=O)[C@@H]2C[C@@H](O)CN2C(=O)[C@@H](c2cc(OCCN3CCC(N4CC(Oc5cc(N6C7CCC6CN(c6cc(-c8ccccc8O)nnc6N)C7)ccn5)C4)CC3)no2)C(C)C)cc1` [compound 374, (2S,4R)-1-((2R)-2-(3-(2-(4-(3-((4-(3-(3-amino-6-(2-hydroxyphenyl)pyridazin-4-yl)-3,8-diazabicyclo[3.2.1]octan-8-yl)pyridin-2-yl)oxy)azetidin-1-yl)piperidin-1-yl)ethoxy)isoxazol-5-yl)-3-methylbutanoyl)-4-hydroxy-N-((S)-1-(4-(4-methylthiazol-5-yl)phenyl)ethyl)pyrrolidine-2-carboxamide], for which the Dmax under setting [5] was more than 75%. For the same molecule, for the setting “target protein degradation, read-out: BRM DC50”, the DC50 is more than 30 nM.
